For 40 compounds, IC50 results are on record in patent publication US20250313548A1 (Actio Biosciences, Inc., priority 2023, published 2025).

Each structure is given as a SMILES string. Where only a bound is given, the exact number is not on record here.

A word on the IC50: it is the concentration needed to halve the response being measured. The low end stands for higher potency, the high end for lower potency.

Chain of human, KCNT1 (Q5JUK3 whole entry): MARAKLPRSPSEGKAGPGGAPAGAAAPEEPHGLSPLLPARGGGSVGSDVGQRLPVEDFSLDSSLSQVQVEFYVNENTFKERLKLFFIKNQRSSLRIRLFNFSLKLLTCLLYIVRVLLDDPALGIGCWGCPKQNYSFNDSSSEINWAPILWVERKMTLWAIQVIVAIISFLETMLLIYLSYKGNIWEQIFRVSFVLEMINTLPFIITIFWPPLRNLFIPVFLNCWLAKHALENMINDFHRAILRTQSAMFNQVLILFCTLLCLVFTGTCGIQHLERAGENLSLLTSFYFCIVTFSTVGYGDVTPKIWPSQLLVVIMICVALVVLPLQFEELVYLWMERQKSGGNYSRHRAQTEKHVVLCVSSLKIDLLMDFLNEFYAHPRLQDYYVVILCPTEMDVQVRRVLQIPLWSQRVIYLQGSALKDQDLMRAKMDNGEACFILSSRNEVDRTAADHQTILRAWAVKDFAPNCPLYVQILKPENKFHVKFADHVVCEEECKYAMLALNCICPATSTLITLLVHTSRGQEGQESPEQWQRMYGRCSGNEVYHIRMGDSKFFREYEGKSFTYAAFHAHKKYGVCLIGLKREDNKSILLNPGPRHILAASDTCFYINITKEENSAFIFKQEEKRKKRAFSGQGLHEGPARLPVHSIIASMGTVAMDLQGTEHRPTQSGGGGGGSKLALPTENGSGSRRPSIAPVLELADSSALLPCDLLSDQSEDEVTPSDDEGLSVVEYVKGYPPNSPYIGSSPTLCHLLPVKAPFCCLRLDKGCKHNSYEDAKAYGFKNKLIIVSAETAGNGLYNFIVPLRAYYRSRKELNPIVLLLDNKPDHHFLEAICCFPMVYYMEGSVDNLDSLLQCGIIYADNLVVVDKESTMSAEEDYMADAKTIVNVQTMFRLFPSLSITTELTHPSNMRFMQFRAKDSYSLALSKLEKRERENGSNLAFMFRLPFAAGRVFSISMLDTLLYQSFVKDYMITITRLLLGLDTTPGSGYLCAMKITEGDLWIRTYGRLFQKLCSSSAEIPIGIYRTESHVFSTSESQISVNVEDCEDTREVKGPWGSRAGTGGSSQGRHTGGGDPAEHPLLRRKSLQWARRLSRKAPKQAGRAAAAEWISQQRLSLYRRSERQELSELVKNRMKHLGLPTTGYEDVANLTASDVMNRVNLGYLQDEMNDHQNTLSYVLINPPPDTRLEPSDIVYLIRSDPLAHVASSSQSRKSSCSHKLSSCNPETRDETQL

The assay has as its target human, KCNT1 (Homo sapiens (Human), UniProt Q5JUK3). The assay is described as follows: FLIPR Tl/K Flux Assay. Type of assay: cell-based. The conditions noted are these: HEK293 cells stably expressing human KCNT1; Tl+ flux stimulated with EC80 of agonist Loxapine. As to the method:
HEK293 cells stably expressing human, KCNT1 were cultured in DMEM, 10% FBS, 100 U/mL penicillin-streptomycin and […] puromycin for selection purposes. One day before the assay, cells were detached using TrypLE™ Express and counted using a cell counter. Only cells with >85% viability were used for the assay. […] The cells were incubated overnight at 37° C., 5% (v/v) CO2.
On the day of the assay, the reagents were prepared following the FLIPR® Potassium Assay Kit manual: prepare 2× dye solution, dilute the dye with assay buffer (20 mM HEPES in 1× HBSS, PH7.4), addition of probenecid to a final concentration of 5 mM, and vortexed vigorously for 1-2 minutes. The cell plate was flicked to remove medium and tapped on paper towels to remove excess media. […] The cell plate was moved to a plate shaker, agitated at 600 rpm for two minutes, and then incubated at 25° C. for one hour.
The compounds were prepared in DMSO and transferred to a 384-well compound plate (PP, low binding), referred to as a source plate. Reference agonist (300 nM) compound and test inhibitor (10 mM) compounds were added to the compound plate and a 4-fold serial dilution was performed in DMSO. Using an ECHO dispenser, compounds were dispensed at 90 nL/well from the source plate to a 384-well compound plate (PP, low binding). After the dispensing was complete, 30 µL/well assay buffer was added to the compound plate and mixed for two minutes on a plate shaker. The cell plate, compound plate, and tips were loaded into the FLIPR instrument, and a transfer of 10 μl of 3× compound to the cell plate was initiated. The treated cell plate was kept at in the dark at 25° C. for 30 minutes. Chloride-free stimulation buffer containing 4× 2 mM Tl+ and 4×EC80 of agonist Loxapine was loaded into a 384-well compound plate (PP, low binding). After the 30-minute incubation, the cell plate, compound plate containing stimulation buffer, and FLIPR tips were loaded into the FLIPR instrument. After a baseline read, the FLIPR initiates a transfer of 10 μL of stimulation buffer containing Loxapine to the cell plate. The plate was read for 160 sec with 1 second interval reads to obtain the data.
The normalized fluorescence reading (RFU) was calculated as shown follow, while Fmax and Fmin stand for maximum and minimum of signal during defined time window. The IC50 was calculated by fitting % inhibition against log of compound concentrations with Hill equation using XLfit.
Take `O=C(N[C@H]1CCCc2nn(-c3ccnc(C(F)(F)F)c3)cc21)c1cc(Cl)cc(C(F)(F)F)c1` [Compound I-2a, (S)-3-Chloro-5-(trifluoromethyl)-N-(2-(2-(trifluoromethyl)pyridin-4-yl)-4,5,6,7-tetrahydro-2H-indazol-4-yl)benzamide]: the IC50 was under 250 nM.
Turning to `Cn1nc(CC#N)cc1C(=O)N[C@H]1CCCc2nn(-c3ccnc(C(F)(F)F)c3)cc21` [Compound I-3a], the IC50 is 500 to 1000 nM.
Compound `Cn1nc(C(F)(F)F)cc1C(=O)N[C@H]1CCCc2nn(-c3ccnc(C(F)(F)F)c3)cc21` [Compound I-4a, (S)-1-Methyl-3-(trifluoromethyl)-N-(2-(2-(trifluoromethyl)pyridin-4-yl)-4,5,6,7-tetrahydro-2H-indazol-4-yl)-1H-pyrazole-5-carboxamide] had an IC50 of under 250 nM.
On to `Cn1nc(C(F)(F)F)cc1C(=O)N[C@@H]1CCCc2nn(-c3ccnc(C(F)(F)F)c3)cc21` [Compound I-4b, (R)-1-Methyl-3-(trifluoromethyl)-N-(2-(2-(trifluoromethyl)pyridin-4-yl)-4,5,6,7-tetrahydro-2H-indazol-4-yl)-1H-pyrazole-5-carboxamide], for which the IC50 was over 1000 nM.
The compound `O=C(N[C@H]1CCCc2nn(-c3ccnc(C4CC4)c3)cc21)c1cc(Cl)cc(C(F)(F)F)c1` [Compound I-5a] had a concentration for half-maximal inhibition (IC50) of under 250 nM.
Turning to `O=C(N[C@H]1CCCc2nn(-c3ccnc(C(F)(F)F)c3)cc21)c1cc(C(F)(F)F)nn1C1CC1` [Compound I-9a, (S)-1-Cyclopropyl-3-(trifluoromethyl)-N-(2-(2-(trifluoromethyl)pyridin-4-yl)-4,5,6,7-tetrahydro-2H-indazol-4-yl)-1H-pyrazole-5-carboxamide], the IC50 was under 250 nM.
As for `CCOc1cc(-n2cc3c(n2)CCCC3NC(=O)c2ccccc2)ccn1` (stereo not shown) [Compound I-27], the figure is over 1000 nM; as for `CN(C(=O)c1cc(C(F)(F)F)nn1C)[C@H]1CCCc2nn(-c3ccnc(C(F)(F)F)c3)cc21` [Compound I-37a, (S)—N,1-Dimethyl-3-(trifluoromethyl)-N-(2-(2-(trifluoromethyl)pyridin-4-yl)-4,5,6,7-tetrahydro-2H-indazol-4-yl)-1H-pyrazole-5-carboxamide], over 1000 nM; as for `Cn1nc(C(F)(F)F)cc1C(=O)N[C@H]1CCCn2nc(-c3cnc(C(F)(F)F)s3)cc21` [Compound I-41a, (S)-1-Methyl-3-(trifluoromethyl)-N-(2-(2-(trifluoromethyl)thiazol-5-yl)-4,5,6,7-tetrahydropyrazolo[1,5-a]pyridin-4-yl)-1H-pyrazole-5-carboxamide], under 250 nM.
In the case of `Cn1nc(C(F)(F)F)cc1C(=O)N[C@@H]1CCCn2nc(-c3ccnc(C(F)(F)F)c3)cc21` [Compound I-42b, (R)-1-Methyl-3-(trifluoromethyl)-N-(2-(2-(trifluoromethyl)pyridin-4-yl)-4,5,6,7-tetrahydropyrazolo[1,5-a]pyridin-4-yl)-1H-pyrazole-5-carboxamide], the IC50 is over 1000 nM.
Consider `Cn1nc(C(F)(F)F)cc1C(=O)NC1CCc2ccc(-c3ccnc(C(F)(F)F)c3)nc21` (stereo not shown) [Compound I-43], for which the IC50 was over 1000 nM.
With `Cc1c(-c2ccnc(C(F)(F)F)c2)nn2c1[C@@H](NC(=O)c1cc(C(F)(F)F)nn1C)CCC2` [Compound I-44a], the half-maximal inhibitory concentration (IC50) is under 250 nM.
Consider `Cn1nc(C(F)(F)F)cc1C(=O)N[C@H]1CCCCc2nn(-c3ccnc(C(F)(F)F)c3)cc21` [Compound I-45a, (S)-1-methyl-3-(trifluoromethyl)-N-(2-(2-(trifluoromethyl)pyridin-4-yl)-2,4,5,6,7,8-hexahydrocyclohepta[c]pyrazol-4-yl)-1H-pyrazole-5-carboxamide], for which the IC50 is under 250 nM.
As for `Cn1nc(C(F)(F)F)cc1C(=O)N[C@@H]1CCCCc2nn(-c3ccnc(C(F)(F)F)c3)cc21` [Compound I-45b, (R)-1-methyl-3-(trifluoromethyl)-N-(2-(2-(trifluoromethyl)pyridin-4-yl)-2,4,5,6,7,8-hexahydrocyclohepta[c]pyrazol-4-yl)-1H-pyrazole-5-carboxamide], the figure is over 1000 nM; as for `Cn1nc(C(F)(F)F)cc1C(=O)N[C@H]1CCc2cnc(-c3ccnc(C(F)(F)F)c3)nc21` [Compound I-46a, (S)-1-Methyl-3-(trifluoromethyl)-N-(2-(2-(trifluoromethyl)pyridin-4-yl)-6,7-dihydro-5H-cyclopenta[d]pyrimidin-7-yl)-1H-pyrazole-5-carboxamide], 250 to 500 nM; as for `Cn1nc(C(F)(F)F)cc1C(=O)N[C@@H]1CCc2cnc(-c3ccnc(C(F)(F)F)c3)nc21` [Compound I-46b, (R)-1-methyl-3-(trifluoromethyl)-N-(2-(2-(trifluoromethyl)pyridin-4-yl)-6,7-dihydro-5H-cyclopenta[d]pyrimidin-7-yl)-1H-pyrazole-5-carboxamide], over 1000 nM.
Regarding `Cn1nc(C(F)(F)F)cc1C(=O)N[C@H]1CCCc2nn(-c3ccnc(C4CC4)c3)cc21` [Compound I-48a], the IC50 is under 250 nM.
In turn, `Cn1nc(C(=O)N[C@H]2CCCc3nn(-c4ccnc(C(F)(F)F)c4)cc32)cc1C(C)(F)F` [Compound I-49a] had an IC50 of over 1000 nM.
For the compound `Cn1nc(C(F)(F)F)nc1C(=O)N[C@H]1CCCc2nn(-c3ccnc(C(F)(F)F)c3)cc21` [Compound I-50a], the 50% inhibitory concentration (IC50) was under 250 nM.
`Cn1nc(C(F)(F)F)cc1C(=O)NC1(C)CCCc2nn(-c3ccnc(C(F)(F)F)c3)cc21` (stereo not shown) [Compound I-51] returned a half-inhibitory concentration (IC50) of over 1000 nM.
The compound `Cn1nc(C(F)(F)F)cc1CC(=O)N[C@H]1CCCc2nn(-c3ccnc(C(F)(F)F)c3)cc21` [Compound I-53a, (S)-2-(1-Methyl-3-(trifluoromethyl)-1H-pyrazol-5-yl)-N-(2-(2-(trifluoromethyl)pyridin-4-yl)-4,5,6,7-tetrahydro-2H-indazol-4-yl)acetamide] came in with a half-maximal inhibitory concentration (IC50) of over 1000 nM.
`Cn1nc(C(F)(F)F)cc1C(=O)N[C@H]1CCCCc2nn(-c3ccnc(C4CC4)c3)cc21` [Compound I-56a] came in with an IC50 of under 250 nM.
Consider `Cn1nc(C(F)(F)F)cc1C(=O)N[C@@H]1CCCCc2nn(-c3ccnc(C4CC4)c3)cc21` [Compound I-56b], for which the concentration for half-maximal inhibition (IC50) is 500 to 1000 nM.
In the case of `Cc1cccc(C(=O)N[C@H]2CCCCc3nn(-c4ccnc(C5CC5)c4)cc32)c1` [Compound I-58a], the half-maximal inhibitory concentration (IC50) is under 250 nM.
For `Cc1cccc(C(=O)N[C@@H]2CCCCc3nn(-c4ccnc(C5CC5)c4)cc32)c1` [Compound I-58b], the IC50 lay in the range of 500 to 1000 nM.
As for `O=C(N[C@H]1CCCCc2nn(-c3ccnc(C4CC4)c3)cc21)c1cccc(C(F)(F)F)c1` [Compound I-60a], the figure is under 250 nM; as for `O=C(N[C@@H]1CCCCc2nn(-c3ccnc(C4CC4)c3)cc21)c1cccc(C(F)(F)F)c1` [Compound I-60b], 500 to 1000 nM.
`Cn1nc(C(F)(F)F)cc1C(=O)N[C@H]1CCCn2nc(-c3ccnc(C4CC4)c3)cc21` [Compound I-64a] displayed an IC50 of under 250 nM.
Consider `Cn1nc(C(F)(F)F)cc1C(=O)N[C@@H]1CCCn2nc(-c3ccnc(C4CC4)c3)cc21` [Compound I-64b], for which the IC50 was in the range of 500 to 1000 nM.
Compound `O=C(N[C@H]1CCn2nc(-c3ccnc(C4CC4)c3)cc21)c1ccc(C(F)(F)F)nc1` [Compound I-66a] came in with an IC50 of under 250 nM.
The figure for `Cn1nc(C(F)(F)F)cc1C(=O)N[C@H]1CCn2nc(-c3ccnc(C4CC4)c3)cc21` [Compound I-68a] is under 250 nM; for `Cn1nc(C(F)(F)F)cc1C(=O)N[C@@H]1CCn2nc(-c3ccnc(C4CC4)c3)cc21` [Compound I-68b] it is 500 to 1000 nM; for `CCc1cc(-n2cc3c(n2)CC[C@@H]3NC(=O)c2cc(C(F)(F)F)nn2C)ccn1` [Compound I-69a] it is under 250 nM.
`CCc1cc(-n2cc3c(n2)CC[C@H]3NC(=O)c2cc(C(F)(F)F)nn2C)ccn1` [Compound I-69b] registered a 50% inhibitory concentration (IC50) of over 1000 nM.
The figure for `CC(C)c1cc(-n2cc3c(n2)CC[C@@H]3NC(=O)c2cc(C(F)(F)F)nn2C)ccn1` [Compound I-70a] is under 250 nM; for `CC(C)c1cc(-n2cc3c(n2)CC[C@H]3NC(=O)c2cc(C(F)(F)F)nn2C)ccn1` [Compound I-70b] it is over 1000 nM; for `Cn1nc(C(F)(F)F)cc1C(=O)N[C@H]1CCc2nn(-c3ccnc(C4CC4)c3)cc21` [Compound I-71a] it is under 250 nM.
Compound `Cn1nc(C(F)(F)F)cc1C(=O)N[C@@H]1CCc2nn(-c3ccnc(C4CC4)c3)cc21` [Compound I-71b] displayed an IC50 of 500 to 1000 nM.
`Cn1nc(C(F)(F)F)cc1C(=O)N[C@H]1CCc2nn(-c3ccnc(C4CCC4)c3)cc21` [Compound I-72a] registered a 50% inhibitory concentration (IC50) of under 250 nM.
Regarding `Cn1nc(C(F)(F)F)cc1C(=O)N[C@@H]1CCc2nn(-c3ccnc(C4CCC4)c3)cc21` [Compound I-72b], the IC50 was over 1000 nM.
